This is an account of results in PubChem BioAssay (NCI).

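Each compound was tested at five concentrations against cells in 96-well plates for 48 hours. At the TGI there is no net growth.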 Some results are limits rather than exact numbers.

Among the test systems are RPMI-8226 leukemia; ACHN renal; UO-31 renal; LOX IMVI melanoma; SK-MEL-28 melanoma; HCC-2998 colon; NCI-H23 lung; IGROV1 ovarian; T-47D breast; TK-10 renal.
What all share (test): DTP human tumour cell line panel, 48 h

By TGI is commonly meant the concentration at which net growth stops. `COc1c(C)c(C/C=C(\C)CCCCO[Si](c2ccccc2)(c2ccccc2)C(C)(C)C)c(OC)c(OC)c1OC`: the concentration for total growth inhibition (TGI) in the assay with RPMI-8226 leukemia was > 46.4 µM; with ACHN renal it was 25.1 µM; in the assay with UO-31 renal, 19.4 µM; with LOX IMVI melanoma it was 58.3 µM; in the assay on SK-MEL-28 melanoma, > 100 µM; with HCC-2998 colon it was > 46.4 µM. Moreover, the total growth inhibition concentration (TGI) in the assay with NCI-H23 lung is 38.7 µM; in the assay with IGROV1 ovarian it was 42.2 µM; in the assay on T-47D breast it was > 100 µM; with TK-10 renal it was > 31.6 µM.
For `Oc1cc2c3c(c1)c1cc4c(cc1c[n+]3CC2)OCO4`, the total growth inhibition concentration (TGI) in the assay with RPMI-8226 leukemia is 6.46 µM; in the assay with ACHN renal, > 100 µM; with UO-31 renal it was > 100 µM; in the assay with LOX IMVI melanoma, 18.4 µM; with SK-MEL-28 melanoma, > 41.8 µM; in the assay on HCC-2998 colon, 25.9 µM. Further, the TGI in the assay on NCI-H23 lung was 13.3 µM; in the assay with IGROV1 ovarian, > 39.8 µM; in the assay on T-47D breast, 22.5 µM; in the assay on TK-10 renal, > 75.7 µM.
`N#CC1=C(N)N(c2ccccc2)C(c2ccco2)C1(C#N)C#N` (stereo not given): the TGI is 45.5 µM with RPMI-8226 leukemia; 32 µM with ACHN renal; 33.6 µM in the assay with UO-31 renal; 31.1 µM in the assay with LOX IMVI melanoma; 38.9 µM in the assay with SK-MEL-28 melanoma; 31.3 µM with HCC-2998 colon. Further, the TGI was 38.9 µM in the assay on NCI-H23 lung, 47.9 µM in the assay on IGROV1 ovarian, 81 µM with T-47D breast and 31.5 µM in the assay on TK-10 renal.
As to `O=[N+]([O-])/C(C(Cl)=C(Cl)Cl)=C(\SCc1ccccc1)N1CCCCC1`, the total growth inhibition concentration (TGI) is 92.9 µM with RPMI-8226 leukemia; 37.6 µM in the assay with ACHN renal; 56.5 µM in the assay on UO-31 renal; 35 µM in the assay on LOX IMVI melanoma; > 100 µM in the assay with SK-MEL-28 melanoma; 45.7 µM with HCC-2998 colon. Further, the TGI with NCI-H23 lung is 42.1 µM; in the assay with IGROV1 ovarian it was 57.1 µM; in the assay with T-47D breast, 51.1 µM; in the assay with TK-10 renal, > 100 µM.
In the case of `CCc1ccc(CCN2CCCCC2)nc1`, the concentration for total growth inhibition (TGI) in the assay with RPMI-8226 leukemia, in the assay with ACHN renal, in the assay on UO-31 renal, in the assay on LOX IMVI melanoma, in the assay with SK-MEL-28 melanoma and in the assay with HCC-2998 colon was > 100 µM in each case. Besides, the TGI in the assay on NCI-H23 lung, with IGROV1 ovarian, with T-47D breast and in the assay on TK-10 renal was > 100 µM in each case.
For the molecule `Cc1ccsc1/C=N/Nc1ncccn1`, the concentration for total growth inhibition (TGI) with RPMI-8226 leukemia, in the assay on ACHN renal, with UO-31 renal, in the assay on LOX IMVI melanoma, with SK-MEL-28 melanoma and in the assay with HCC-2998 colon was > 100 µM in each case. The concentration for total growth inhibition (TGI) with NCI-H23 lung, with IGROV1 ovarian, in the assay on T-47D breast and in the assay on TK-10 renal was > 100 µM in each case.
With `Cc1ccc(SCC(CSCCO)OCn2cnc3c2NC(N)=NC32OCCO2)cc1` (stereo not given), the concentration for total growth inhibition (TGI) with RPMI-8226 leukemia, in the assay with ACHN renal, in the assay on UO-31 renal, in the assay with LOX IMVI melanoma, in the assay with SK-MEL-28 melanoma and with HCC-2998 colon was > 100 µM throughout. In addition, the TGI with NCI-H23 lung, with IGROV1 ovarian, in the assay on T-47D breast and with TK-10 renal was > 100 µM in each case.
Regarding `CCC1(O)CC2CC(=O)OC2C1O` (stereo not given), the TGI in the assay with RPMI-8226 leukemia, in the assay on ACHN renal, in the assay with UO-31 renal, in the assay with LOX IMVI melanoma, in the assay on SK-MEL-28 melanoma and with HCC-2998 colon was > 100 µM throughout. Besides, the TGI in the assay on NCI-H23 lung, with IGROV1 ovarian, with T-47D breast and in the assay on TK-10 renal was > 100 µM each time.
As to `O=[N+]([O-])C(=C1NCCN1)/C(Cl)=C(\Cl)Br`, the TGI in the assay on RPMI-8226 leukemia was 62.4 µM; in the assay with ACHN renal, > 100 µM; with UO-31 renal, > 100 µM; with LOX IMVI melanoma, 33.4 µM; in the assay with SK-MEL-28 melanoma, > 77.7 µM; in the assay on HCC-2998 colon, > 100 µM. For the same molecule, the TGI was > 69.6 µM in the assay with NCI-H23 lung, > 100 µM in the assay on IGROV1 ovarian, 40.6 µM with T-47D breast and > 100 µM in the assay on TK-10 renal.
With `Cc1cccc(/C=N/NC(=S)Nc2ccccc2)n1`, the TGI in the assay with RPMI-8226 leukemia was 75.6 µM; in the assay with ACHN renal, 13.7 µM; in the assay with UO-31 renal, > 31.2 µM; with LOX IMVI melanoma, 21.4 µM; in the assay on SK-MEL-28 melanoma it was > 100 µM; in the assay on HCC-2998 colon, > 61.6 µM. Moreover, the TGI is > 72.7 µM in the assay on NCI-H23 lung, > 25 µM in the assay with IGROV1 ovarian, > 29.2 µM with T-47D breast and > 95.3 µM in the assay with TK-10 renal.
Take `CC1(C)N=C(/C(Cl)=[N+](/[O-])C(=O)c2ccc(F)cc2)C(C)(C)N1O`: the TGI in the assay on RPMI-8226 leukemia came to 38.1 µM; in the assay on ACHN renal it was 36.5 µM; with UO-31 renal, 37.9 µM; in the assay on LOX IMVI melanoma it was 24.3 µM; in the assay with SK-MEL-28 melanoma it was 32.4 µM; in the assay with HCC-2998 colon it was 35.4 µM. Besides, the concentration for total growth inhibition (TGI) was found to be 42.8 µM in the assay with NCI-H23 lung, 37 µM with IGROV1 ovarian, 58.5 µM in the assay on T-47D breast and 29.7 µM with TK-10 renal.
In the case of `O=C(NNC(=O)c1ccccc1SSc1ccccc1C(=O)NNC(=O)c1ccccc1S)c1ccccc1S`, the TGI in the assay on RPMI-8226 leukemia was > 100 µM; in the assay on ACHN renal, > 100 µM; in the assay with UO-31 renal it was > 100 µM; in the assay with LOX IMVI melanoma, > 100 µM; in the assay on SK-MEL-28 melanoma, > 91.7 µM; in the assay with HCC-2998 colon, > 100 µM. For the same molecule, the TGI in the assay with NCI-H23 lung is 62.2 µM; in the assay with IGROV1 ovarian, > 100 µM; in the assay with T-47D breast, > 27.8 µM; in the assay with TK-10 renal, > 100 µM.
On to `O=C(CCC(=O)c1ccc(Cl)cc1)NO`, for which the TGI with RPMI-8226 leukemia, in the assay on ACHN renal, in the assay on UO-31 renal, in the assay on LOX IMVI melanoma, in the assay with SK-MEL-28 melanoma and in the assay on HCC-2998 colon was > 100 µM each time. The TGI with NCI-H23 lung, with IGROV1 ovarian, with T-47D breast and with TK-10 renal was > 100 µM throughout.
In the case of `C[C@@]12C[C@@H](c3ccccc3O1)N1CCCCSC1=N2`, the TGI in the assay with RPMI-8226 leukemia, with ACHN renal, in the assay on UO-31 renal, with LOX IMVI melanoma, in the assay with SK-MEL-28 melanoma and with HCC-2998 colon was > 100 µM each time. Also, the TGI in the assay on NCI-H23 lung, in the assay on IGROV1 ovarian, in the assay on T-47D breast and in the assay with TK-10 renal was > 100 µM each time.
Regarding `COC(=O)C1CCC(=O)N1C(c1ccccc1)c1ccc(OC)c(OC)c1` (stereo not given), the TGI with RPMI-8226 leukemia, with ACHN renal, with UO-31 renal, with LOX IMVI melanoma, in the assay on SK-MEL-28 melanoma and with HCC-2998 colon was > 100 µM in each case. Besides, the TGI with NCI-H23 lung, in the assay with IGROV1 ovarian, with T-47D breast and with TK-10 renal was > 100 µM throughout.
Regarding `O=C(O)CN(CC(=O)O)C1CCCCC1N(CC(=O)O)CC(=O)NCCN=C=S` (stereo not given), the total growth inhibition concentration (TGI) in the assay with RPMI-8226 leukemia, in the assay with ACHN renal, in the assay on UO-31 renal, in the assay with LOX IMVI melanoma, with SK-MEL-28 melanoma and in the assay on HCC-2998 colon was > 100 µM throughout. The total growth inhibition concentration (TGI) in the assay on NCI-H23 lung, with IGROV1 ovarian, in the assay with T-47D breast and in the assay on TK-10 renal was > 100 µM each time.
For the molecule `CC(C)/C(Cl)=N\OC(=O)Nc1ccc(S(N)(=O)=O)cc1`, the total growth inhibition concentration (TGI) in the assay on RPMI-8226 leukemia amounted to 4.97 µM; in the assay with ACHN renal it was 26.8 µM; in the assay with UO-31 renal it was 30.2 µM; in the assay with LOX IMVI melanoma, 7 µM; in the assay with SK-MEL-28 melanoma, 31.3 µM; in the assay on HCC-2998 colon, 32.7 µM. Besides, the concentration for total growth inhibition (TGI) was 37.8 µM with NCI-H23 lung, 33.9 µM in the assay with IGROV1 ovarian, 52 µM in the assay on T-47D breast and 31.8 µM with TK-10 renal.
In the case of `CC(C)C1/C(=N/O)CC(c2ccccc2)N(N=O)C1c1ccccc1` (stereo not given), the TGI was > 100 µM in the assay on RPMI-8226 leukemia; > 100 µM in the assay with ACHN renal; 82.9 µM in the assay on UO-31 renal; > 100 µM with LOX IMVI melanoma; > 100 µM with SK-MEL-28 melanoma; > 100 µM in the assay with HCC-2998 colon. Moreover, the total growth inhibition concentration (TGI) is > 100 µM with NCI-H23 lung, > 100 µM in the assay with IGROV1 ovarian, 96.2 µM in the assay on T-47D breast and > 100 µM in the assay with TK-10 renal.
Consider `COc1cc(/C=C/C(=N\NS(=O)(=O)c2ccc(C)cc2)c2sc(NNC(C)=O)nc2C)ccc1O`, for which the TGI in the assay on RPMI-8226 leukemia, with ACHN renal, in the assay on UO-31 renal, in the assay on LOX IMVI melanoma, in the assay on SK-MEL-28 melanoma and in the assay on HCC-2998 colon was > 100 µM each time. The concentration for total growth inhibition (TGI) with NCI-H23 lung, in the assay on IGROV1 ovarian, with T-47D breast and in the assay on TK-10 renal was > 100 µM in each case.
For `Clc1cc(OC2C3CC4CC(C3)CC2C4)nc(Cl)n1` (stereo not given), the TGI in the assay with RPMI-8226 leukemia is 43 µM; in the assay on ACHN renal, 32.8 µM; with UO-31 renal, 10.8 µM; with LOX IMVI melanoma it was 14.4 µM; in the assay with SK-MEL-28 melanoma, 29.1 µM; with HCC-2998 colon, 4.28 µM. Moreover, the TGI in the assay on NCI-H23 lung is 31 µM; in the assay on IGROV1 ovarian, 23.3 µM; in the assay on T-47D breast, 53.4 µM; in the assay with TK-10 renal it was > 100 µM.
